Data as given in publication PMC10818746, “Inhibition of CYP1A1 Alleviates Colchicine-Induced Hepatotoxicity” (Toxins, 2024).

Experiments:
Assay type in all cases: in vitro ADME
Conditions in all cases: colchicine 25 µM, NADPH 1 mM, CYP 2 pmol/mL, PBS pH 7.4; mean ± SD (n = 2)
CYP2D6 = target: T1, CYP2D6 (Homo sapiens, UniProt P10635); test: Colchicine metabolism by cDNA-expressed recombinant CYP2D6
T1 construct: purchased Research Institute for Liver Diseases Co., Ltd. (Shanghai, China)
Experimental: (§1) Pre-cooled acetonitrile was used to terminate the reaction, and then centrifugation (4 °C, 12,000 rpm, 20 min) was performed to obtain the sample.
(§2) All samples were analyzed as shown in [17] and are briefly described in Supporting Information. […]
(§3) Supplementary materials and methods
(§4) Reference numbers refer to the main text list
(§5) UHPLC‐Q exactive plus MS Analysis
(§6) All samples were analyzed on a liquid chromatography system including a Vanquish autosampler, Vanquish detector, Vanquish pump (Thremo Fisher Scientific, Santa Clara, CA). Samples were separated on an ACQUITY UPLC HSS T3 column (2.1×100 mm, […], Waters, USA). The injection volume: 5 μL, and the flow rate was 0.3 mL/min.
(§7) Phase A was H2O containing 0.01% formic acid, and phase B was acetonitrile containing 0.01% formic acid. The elution gradient was as follows: 0‐12 mi n, 2‐98% B; 12‐14 min, 2% A; 14‐16 min, 98% A. Other parameters are as follows: column temperature 45 ℃ , flow rate of collision gas and dry gas 9 L/min. Capillary voltage 3.5 kV, temperature 350 ℃ , atomizer pressure 35 psi. Vanquish UHPLC‐Q Exactive plus MS (Thermo Fisher, USA) was collected in both positive modes, operating in full scan mode with 60‐900 m/z. […]

CYP2E1 = target: T2, CYP2E1 (Homo sapiens, UniProt P05181); test: Colchicine metabolism by cDNA-expressed recombinant CYP2E1
T2 construct: purchased Research Institute for Liver Diseases Co., Ltd. (Shanghai, China)
Experimental: as §1, §2, §3, §4, §5, §6, §7

CYP3A5 = target: T3, CYP3A5 (Homo sapiens, UniProt P20815); test: Colchicine metabolism by cDNA-expressed recombinant CYP3A5
T3 construct: purchased Research Institute for Liver Diseases Co., Ltd. (Shanghai, China)
Experimental: as §1, §2, §3, §4, §5, §6, §7

CYP2C9 = target: T4, CYP2C9 (Homo sapiens, UniProt P11712); test: Colchicine metabolism by cDNA-expressed recombinant CYP2C9
T4 construct: purchased Research Institute for Liver Diseases Co., Ltd. (Shanghai, China)
Experimental: as §1, §2, §3, §4, §5, §6, §7

CYP2C8 = target: T5, CYP2C8 (Homo sapiens, UniProt P10632); test: Colchicine metabolism by cDNA-expressed recombinant CYP2C8
T5 construct: purchased Research Institute for Liver Diseases Co., Ltd. (Shanghai, China)
T5 sequence (P10632 1-490): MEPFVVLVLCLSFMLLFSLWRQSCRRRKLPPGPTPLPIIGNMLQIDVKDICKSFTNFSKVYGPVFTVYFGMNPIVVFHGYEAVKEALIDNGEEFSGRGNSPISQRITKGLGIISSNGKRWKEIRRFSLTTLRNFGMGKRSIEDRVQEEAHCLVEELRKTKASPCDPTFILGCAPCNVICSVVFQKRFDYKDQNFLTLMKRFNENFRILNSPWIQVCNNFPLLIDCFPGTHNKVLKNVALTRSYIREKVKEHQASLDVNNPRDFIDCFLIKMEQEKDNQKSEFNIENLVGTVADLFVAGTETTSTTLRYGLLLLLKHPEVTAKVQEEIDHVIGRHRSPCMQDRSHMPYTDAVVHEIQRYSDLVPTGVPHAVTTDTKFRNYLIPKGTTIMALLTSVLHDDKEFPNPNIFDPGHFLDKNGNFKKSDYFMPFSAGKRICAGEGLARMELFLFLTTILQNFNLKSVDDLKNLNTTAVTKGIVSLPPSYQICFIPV
Experimental: as §1, §2, §3, §4, §5, §6, §7

CYP1A2 = target: T6, CYP1A2 (Homo sapiens, UniProt P05177); test: Colchicine metabolism by cDNA-expressed recombinant CYP1A2
T6 construct: purchased Research Institute for Liver Diseases Co., Ltd. (Shanghai, China)
T6 sequence (P05177 1-516): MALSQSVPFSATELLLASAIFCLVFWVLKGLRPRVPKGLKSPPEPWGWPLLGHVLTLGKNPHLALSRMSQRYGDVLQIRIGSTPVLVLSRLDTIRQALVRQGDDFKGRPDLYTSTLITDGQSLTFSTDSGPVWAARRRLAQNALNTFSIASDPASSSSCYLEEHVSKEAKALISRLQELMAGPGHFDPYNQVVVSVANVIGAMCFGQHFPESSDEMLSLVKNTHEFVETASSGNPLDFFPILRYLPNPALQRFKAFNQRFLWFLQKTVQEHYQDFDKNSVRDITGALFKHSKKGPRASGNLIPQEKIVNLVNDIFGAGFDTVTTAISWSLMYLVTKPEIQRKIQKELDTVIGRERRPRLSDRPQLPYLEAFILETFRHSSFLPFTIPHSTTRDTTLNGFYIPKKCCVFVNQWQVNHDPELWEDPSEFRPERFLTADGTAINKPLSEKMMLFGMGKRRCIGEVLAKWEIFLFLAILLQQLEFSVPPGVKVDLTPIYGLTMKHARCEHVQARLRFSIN
Experimental: as §1, §2, §3, §4, §5, §6, §7

T2 sequence (P05181 whole entry): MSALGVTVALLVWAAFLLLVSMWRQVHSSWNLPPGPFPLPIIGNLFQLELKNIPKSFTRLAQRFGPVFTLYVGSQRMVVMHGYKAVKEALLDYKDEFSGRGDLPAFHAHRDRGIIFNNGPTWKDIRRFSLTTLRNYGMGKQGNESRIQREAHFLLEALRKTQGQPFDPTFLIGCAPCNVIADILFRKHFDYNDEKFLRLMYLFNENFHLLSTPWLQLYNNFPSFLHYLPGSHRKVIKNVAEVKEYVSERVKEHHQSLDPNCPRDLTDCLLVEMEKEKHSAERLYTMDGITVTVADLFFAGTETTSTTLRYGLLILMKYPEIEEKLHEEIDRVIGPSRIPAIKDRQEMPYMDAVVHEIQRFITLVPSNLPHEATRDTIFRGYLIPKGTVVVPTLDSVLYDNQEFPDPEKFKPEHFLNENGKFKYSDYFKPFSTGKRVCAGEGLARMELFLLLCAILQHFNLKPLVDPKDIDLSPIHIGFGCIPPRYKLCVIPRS
T3 sequence (P20815 whole entry): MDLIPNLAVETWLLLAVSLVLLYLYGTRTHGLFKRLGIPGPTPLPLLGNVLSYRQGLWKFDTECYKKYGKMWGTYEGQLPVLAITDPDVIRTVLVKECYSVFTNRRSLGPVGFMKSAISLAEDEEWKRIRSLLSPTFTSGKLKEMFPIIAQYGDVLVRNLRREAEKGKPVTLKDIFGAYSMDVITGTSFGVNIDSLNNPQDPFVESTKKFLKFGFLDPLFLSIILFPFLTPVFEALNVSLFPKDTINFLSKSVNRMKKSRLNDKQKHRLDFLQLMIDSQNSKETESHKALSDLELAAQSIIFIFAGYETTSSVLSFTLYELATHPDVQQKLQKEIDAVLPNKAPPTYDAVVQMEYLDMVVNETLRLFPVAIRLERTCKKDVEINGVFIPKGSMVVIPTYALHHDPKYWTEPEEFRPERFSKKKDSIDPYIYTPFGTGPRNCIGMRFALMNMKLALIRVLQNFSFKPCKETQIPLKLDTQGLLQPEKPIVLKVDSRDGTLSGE
T1 sequence (P10635 whole entry): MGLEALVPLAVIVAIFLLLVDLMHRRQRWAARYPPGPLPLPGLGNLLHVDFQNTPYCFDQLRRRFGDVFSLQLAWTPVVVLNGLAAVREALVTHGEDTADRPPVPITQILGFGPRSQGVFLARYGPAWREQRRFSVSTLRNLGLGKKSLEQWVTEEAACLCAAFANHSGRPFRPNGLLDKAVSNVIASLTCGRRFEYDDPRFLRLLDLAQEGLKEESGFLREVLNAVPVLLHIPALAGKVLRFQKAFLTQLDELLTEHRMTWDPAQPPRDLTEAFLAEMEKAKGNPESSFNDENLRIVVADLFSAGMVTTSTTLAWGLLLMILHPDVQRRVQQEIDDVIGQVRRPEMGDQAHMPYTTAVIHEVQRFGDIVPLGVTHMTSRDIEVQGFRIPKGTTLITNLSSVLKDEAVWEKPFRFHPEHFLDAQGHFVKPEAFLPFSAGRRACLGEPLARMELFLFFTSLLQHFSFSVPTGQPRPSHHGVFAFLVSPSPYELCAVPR
T4 sequence (P11712 whole entry): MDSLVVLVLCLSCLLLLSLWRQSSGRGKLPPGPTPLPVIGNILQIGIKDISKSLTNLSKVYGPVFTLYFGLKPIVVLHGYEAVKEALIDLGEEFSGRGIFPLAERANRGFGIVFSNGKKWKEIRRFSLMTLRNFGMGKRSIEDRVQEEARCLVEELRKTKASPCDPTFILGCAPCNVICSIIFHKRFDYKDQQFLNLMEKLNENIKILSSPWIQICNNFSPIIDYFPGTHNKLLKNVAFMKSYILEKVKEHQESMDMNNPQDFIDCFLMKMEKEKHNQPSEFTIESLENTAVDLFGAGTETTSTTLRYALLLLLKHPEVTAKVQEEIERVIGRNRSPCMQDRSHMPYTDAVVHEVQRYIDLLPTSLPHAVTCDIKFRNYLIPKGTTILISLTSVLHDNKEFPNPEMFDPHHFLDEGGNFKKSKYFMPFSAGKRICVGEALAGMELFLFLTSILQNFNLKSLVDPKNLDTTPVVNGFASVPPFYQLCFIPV

| Compound | peak area of the metabolite after incubation with CYP2D6 as a percentage of the total peak areas from all the CYPs (CYP2D6) [%] | peak area of the metabolite after incubation with CYP2E1 as a percentage of the total peak areas from all the CYPs (CYP2E1) [%] | peak area of the metabolite after incubation with CYP3A5 as a percentage of the total peak areas from all the CYPs (CYP3A5) [%] | peak area of the metabolite after incubation with CYP2C9 as a percentage of the total peak areas from all the CYPs (CYP2C9) [%] | peak area of the metabolite after incubation with CYP2C8 as a percentage of the total peak areas from all the CYPs (CYP2C8) [%] | peak area of the metabolite after incubation with CYP1A2 as a percentage of the total peak areas from all the CYPs (CYP1A2) [%] |
| --- | --- | --- | --- | --- | --- | --- |
| COc1cc2c(c(OC)c1O)-c1ccc(OC)c(=O)cc1[C@@H](NC(C)=O)CC2 [M1] | 7.91 ± 0.60 | 4.77 ± 2.02 | 9.93 ± 0.49 | 13.68 ± 5.29 | 6.82 ± 0.03 | 6.36 ± 0.19 |
| COc1cc2c(c(OC)c1OC)-c1ccc(O)c(=O)cc1[C@@H](NC(C)=O)CC2 [M4] | 11.27 ± 3.15 | 6.93 ± 0.40 | 7.36 ± 0.44 | 6.44 ± 0.02 | 7.21 ± 0.40 | 6.72 ± 0.44 |
| COc1cc2c(c(O)c1OC)-c1ccc(OC)c(=O)cc1[C@@H](NC(C)=O)CC2 [M2] | 3.23 ± 0.56 | 3.69 ± 0.51 | 12.14 ± 0.15 | 5.57 ± 1.45 | 3.69 ± 0.02 | 0.00 ± 0.00 |
| COc1cc2c(c(OC)c1OC)-c1ccc(OC)c(=O)cc1C=CC2 [M6] | 7.59 ± 0.36 | 8.09 ± 0.37 | 8.06 ± 0.09 | 7.33 ± 0.35 | 6.90 ± 1.01 | 8.69 ± 0.17 |
| COc1c(O)cc2c(c1O)-c1ccc(OC)c(=O)cc1[C@@H](NC(C)=O)CC2 [M8] |  | 6.78 ± 0.72 | 11.08 ± 1.09 | 6.12 ± 3.22 | 8.61 ± 4.55 | 8.67 ± 3.80 |
| COc1c(O)cc2c(c1OC)-c1ccc(OC)c(=O)cc1[C@@H](NC(C)=O)C=C2 [M5] | 7.65 ± 11.17 | 7.32 ± 0.00 | 8.12 ± 0.00 | 7.59 ± 0.00 | 7.37 ± 0.00 | 8.33 ± 0.00 |
